Laboratory results from patent publication US10398696B2, “Combinations for treatment of cancer” (Stichting Het Nederlands Kanker Instituut-Antoni van …, priority 2013, dated 2019).

Experiments:
H358 lung cells = assay: long-term proliferation assay, H358; assay type: cell-based; conditions: MEK inhibitor selumetinib (FIG. 2)
Procedure: FIG. 1 Suppression of ERBB3 by shRNA enhances response to MEK inhibitor. H358 KRAS mutant (Non-Small Cell Lung Cancer (NSCLC) cells were infected with two independent shRNAs targeting ERBB3 as indicated. pLKO vector serves as a control vector. After puromycin selection, cells were cultured in the absence or presence of 1 μM selumetinib for 20 days.
FIG. 2 […] lung cancer cells were cultured in increasing concentration of MEK inhibitor selumetinib alone, EGFR inhibitor gefitinib alone, ERBB2 inhibitor CP724714 alone, EGFR/ERBB2 dual inhibitor afatinib, EGFR/ERBB2 dual inhibitor dacomitinib alone or their combinations as indicated. Cells were harvested, fixed and stained after 21 days.
Recently the use of a kinome-centered synthetic lethal screening approach, which enables the identification of kinases whose inhibition is strongly synergistic with a cancer drug of interest has been described (Prahallad et al., 2012). […] Each of these knockdown vectors has a unique DNA-based molecular bar code identifier, which allows quantification of the relative abundance of each of the shRNA vectors in the presence and absence of drug (Prahallad et al., 2012). […] After 21 days, genomic DNA was isolated from both cells of the treated and untreated populations and the bar codes contained in the shRNA cassettes were recovered by PCR and their abundance determined by deep sequencing. […]

SW837 colon cells = assay: long-term proliferation assay, SW837; assay type: cell-based; conditions: MEK inhibitor selumetinib (FIG. 3)

SMILES: COc1cc2ncnc(Nc3ccc(F)c(Cl)c3)c2cc1NC(=O)/C=C/CN1CCCCC1 [dacometinib]
- synergy with MEK inhibition in long-term proliferation assays (H358 lung cells): strong synergy
- synergy with MEK inhibition in long-term proliferation assays (SW837 colon cells): strong synergy
